From ChEMBL document CHEMBL1201862, “PubChem BioAssay data set” (2004)
The source made the active and inactive calls.

How the values were obtained:
[1] = target: Mitogen-activated protein kinase 10 (Homo sapiens, UniProt P53779); assay: Dose response biochemical screening assay for inhibitors of c-Jun N-Terminal Kinase 3 (JNK3). [Related pubchem assays: 746 ]
[2] = M. tuberculosis H37Rv growth inhibitors, H37Rv strain (AID 1626); format: functional
[3] = target: Peroxisome proliferator-activated receptor gamma/Nuclear receptor coactivator 3 (Homo sapiens, UniProt P37231); assay: TR-FRET dose response biochemical High Throughput Screening assay for agonists of the steroid receptor coactivator 3 (SRC-3) recruitment by the peroxisome proliferator-activated receptor gamma (PPAR gamma): non-selective agonists. [Related pubchem assays: 1301 (Confirmation screen.), 1048 (Primary screen.)]; format: functional
[4] = target: Peroxisome proliferator-activated receptor gamma/Nuclear receptor coactivator 2 (Homo sapiens, UniProt P37231); assay: TR-FRET dose response biochemical High Throughput Screening assay for agonists of the steroid receptor coactivator 2 (SRC-2) recruitment by the peroxisome proliferator-activated receptor gamma (PPAR gamma): non-selective agonists. [Related pubchem assays: 1297, 1032 ]; format: functional
[5] = tested on: HT-1080; assay: HT1080 cell viability loss – fluorescence readout (AID 620); format: functional, cell-based; settings: Homo sapiens
[6] = target: Peroxisome proliferator-activated receptor gamma/Nuclear receptor coactivator 1 (Homo sapiens, UniProt P37231); assay: TR-FRET dose response biochemical High Throughput Screening assay for agonists of the steroid receptor coactivator 1 (SRC-1) recruitment by the peroxisome proliferator-activated receptor gamma (PPAR gamma): non-selective agonists. [Related pubchem assays (depositor defined):AID1300, AID1808, AID504735, AID631]; format: protein assay
[7] = Luminescence-based dose response cell-based high throughput screening assay for cytotoxic compounds using the IEC-6 intestinal epithelial cell line. [Related pubchem assays: 1858 (Summary AID.), 1825 (Counterscreen.), 1907 (Confirmation screen.)]; format: functional
[8] = target: T1, Luciferin 4-monooxygenase (Photinus pyralis, UniProt P08659); assay: Counter Screen for Luciferase-based Assay Positives. [Related pubchem assays: 620, 618, 411 ]
[9] = target: RNA-editing ligase 1, mitochondrial (Trypanosoma brucei brucei, UniProt P86926); assay: inhibition of trypanosome RNA editing ligase – biochemical, fluorescence, Trypanosoma brucei, dose response (AID 1117295); format: functional
[10] = target: Genome polyprotein (Hepatitis C virus, UniProt Q2Q167); assay: disruption of hepatitis C core self-association – biochemical, TR-FRET, dose response (AID 2159); parameters: species or system Hepacivirus hominis;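 note: blocks dimerization of HCV core protein measured by TR-FRET between tagged core106 pairs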
[11] = target: Kallikrein-7 (Homo sapiens, UniProt P49862); assay: Fluorescence Intensity-based biochemical primary high throughput dose response assay to identify activators of kallikrein-7 (K7) zymogen.
[12] = target: T2, Protein skinhead-1 (Caenorhabditis elegans, UniProt P34707); format: functional
T2 sequence (P34707 whole entry): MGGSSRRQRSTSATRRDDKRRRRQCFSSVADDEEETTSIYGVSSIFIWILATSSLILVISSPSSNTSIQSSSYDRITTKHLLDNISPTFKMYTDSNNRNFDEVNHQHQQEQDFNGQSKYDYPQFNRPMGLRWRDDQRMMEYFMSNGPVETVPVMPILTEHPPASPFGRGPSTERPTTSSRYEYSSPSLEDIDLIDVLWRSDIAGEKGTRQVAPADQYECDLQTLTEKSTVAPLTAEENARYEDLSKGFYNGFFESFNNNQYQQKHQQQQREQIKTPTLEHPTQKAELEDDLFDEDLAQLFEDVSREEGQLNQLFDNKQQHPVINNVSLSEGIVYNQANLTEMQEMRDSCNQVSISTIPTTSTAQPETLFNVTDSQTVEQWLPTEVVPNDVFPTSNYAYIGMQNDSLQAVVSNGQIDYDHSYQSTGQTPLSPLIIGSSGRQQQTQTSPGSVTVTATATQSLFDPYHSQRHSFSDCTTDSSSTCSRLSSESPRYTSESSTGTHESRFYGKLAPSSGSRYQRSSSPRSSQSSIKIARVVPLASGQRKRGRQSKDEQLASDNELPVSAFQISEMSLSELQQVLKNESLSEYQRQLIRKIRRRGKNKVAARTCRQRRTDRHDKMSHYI

[13] = reduced cellular PGC1a acetyl-lysine signal – cell-based, cherry-picked samples, dose response (AID 720514); format: functional;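 note: potency may reflect raised or lowered acetylation signal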
[14] = Luminescence Cell-Based Dose Confirmation HTS to Identify Inhibitors of Platelet Dense Granule Release. [Related pubchem assays: 1663 (Primary HTS), 1678 (Summary of Project)]; format: functional
[15] = target: Long-chain-fatty-acid--AMP ligase FadD28 (Mycobacterium tuberculosis, UniProt P9WQ59); assay: Fluorescence polarization aasay to screen for inhibitors that compete for the binding of FadD28 to a bisubstrate Measured in Biochemical System Using Plate Reader - 2147-01_Inhibitor_Dose_CherryPick_Activity.; format: functional, Mycobacterium tuberculosis H37Rv
[16] = target: T3, Oxysterols receptor LXR-beta (Homo sapiens, UniProt P55055); format: functional, cell-based;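 note: Cell-based luminescence dose-response assay of agonist activity at LXR, run as a confirmatory counterscreen to a daf-12 agonist screen; HEK293 cells with Gal4-LXR fusion and GAL4-driven luciferase reporter; agonist potency from rising luciferase signal of a Gal4-LXR reporter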
T3 sequence (P55055 whole entry): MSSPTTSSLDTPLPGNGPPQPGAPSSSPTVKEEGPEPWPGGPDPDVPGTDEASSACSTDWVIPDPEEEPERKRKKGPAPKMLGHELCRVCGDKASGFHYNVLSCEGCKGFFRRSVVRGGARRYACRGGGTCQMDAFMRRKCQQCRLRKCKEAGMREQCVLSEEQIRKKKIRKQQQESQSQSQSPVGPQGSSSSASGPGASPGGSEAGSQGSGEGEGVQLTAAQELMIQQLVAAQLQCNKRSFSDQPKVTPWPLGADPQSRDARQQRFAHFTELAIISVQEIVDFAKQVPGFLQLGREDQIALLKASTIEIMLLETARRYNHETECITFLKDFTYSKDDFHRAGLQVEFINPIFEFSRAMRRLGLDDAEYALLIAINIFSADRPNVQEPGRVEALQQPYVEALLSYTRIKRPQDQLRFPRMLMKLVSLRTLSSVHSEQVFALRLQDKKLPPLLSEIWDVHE

[17] = cells
[18] = target: T4, Mannose-6-phosphate isomerase (Homo sapiens, UniProt P34949); assay: MPI inhibition at elevated mannose 6-phosphate – biochemical, fluorescence intensity, high mannose 6-phosphate, primary screen (AID 1220)
T4 sequence (P34949 whole entry): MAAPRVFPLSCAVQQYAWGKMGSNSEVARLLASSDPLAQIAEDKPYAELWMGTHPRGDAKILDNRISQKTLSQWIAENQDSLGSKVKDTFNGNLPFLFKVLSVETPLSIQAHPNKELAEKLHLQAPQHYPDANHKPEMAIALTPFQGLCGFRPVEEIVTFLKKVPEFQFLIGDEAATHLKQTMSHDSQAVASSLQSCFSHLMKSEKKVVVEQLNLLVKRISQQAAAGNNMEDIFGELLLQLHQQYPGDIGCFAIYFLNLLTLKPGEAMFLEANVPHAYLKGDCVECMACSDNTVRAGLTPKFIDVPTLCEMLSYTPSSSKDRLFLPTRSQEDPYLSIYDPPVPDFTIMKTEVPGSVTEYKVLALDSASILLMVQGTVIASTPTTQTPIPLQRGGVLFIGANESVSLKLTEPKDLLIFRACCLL

[19] = target: T1, Luciferin 4-monooxygenase; assay: inhibition of purified Photinus pyralis luciferase – biochemical, luminescence, dose response (AID 1891)
[20] = target: Paired box protein Pax-8 (Homo sapiens, UniProt Q06710); assay: PAX8 transcriptional activity inhibition in RMG-I – RMG-I cells, luciferase, cherry-pick, dose response (AID 687027); format: functional, cell-based;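 note: luciferase reporter driven by Pax8 target thyroperoxidase promoter measured by SteadyGlo luminescence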
[21] = blockade of melanocortin 4 receptor signaling – cell-based, plate reader, cherry pick, counter-screen for LGR2 antagonist project, dose response (AID 743444); format: functional;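 note: transfected HEK 293 cells stimulated with alpha-MSH peptide; potency of inhibitors of the alpha-MSH evoked signal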
[22] = viability loss in HEK293 cells – cell-based, plate reader, cherry-picked samples, cytotoxicity control, dose response (AID 743446); format: functional
[23] = blockers of bursicon-stimulated LGR2 cAMP reporter – cell-based, HEK293, CRE-luciferase reporter, cherry pick, set 2, dose response (AID 743343); format: functional;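 note: transfected cells were stimulated with diluted bursicon conditioned medium after compound addition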
[24] = IGROV1 cell killing – plate reader, dry powder samples, PAX8 inhibitor project, dose response (AID 743043); format: functional, cell-based; settings: IGROV-1
[25] = OVCAR-3 cell viability loss – plate reader, dry powder samples, PAX8 inhibitor project, dose response (AID 743044); format: functional, cell-based
[26] = OVCAR8 cell viability loss – plate reader, dry powder samples, PAX8 project, dose response (AID 743197); format: functional, cell-based; settings: OVCAR-8
[27] = HIV-1 AD8 envelope cell-cell fusion blockers – cherry-pick, dose response (AID 652062); format: functional, cell-based;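 note: luciferase signal from cell-cell fusion driven by HIV-1 clade B AD8 Env; potency is for inhibitors of fusion seen as a drop in luminescence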
[28] = general cell-killing toxicity readout – plate reader, dry powder samples, cytotoxicity control for PAX8 inhibitor project, dose response (AID 743021); format: functional, cell-based
[29] = toxicity toward immortalized ovarian surface epithelium – cell-based, plate reader, dry powder samples, cytotoxicity control for PAX8 inhibitor project, dose response (AID 743045); format: functional
[30] = A549 cell cytotoxicity, dose response, cytotoxicity control, plate reader, cherry-pick, antagonist series (AID 743412); format: functional, cell-based
[31] = P. falciparum Dd2 growth inhibitors, dose response, SYBR Green, cherry-picked samples (AID 1159567); format: functional, cell-based
[32] = growth inhibition of yeast DHODH-expressing 3D7 parasites – SYBR Green, dry powder samples, dose response (AID 1159570); format: functional, cell-based;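 note: parasite growth measured after 72 hours of compound exposure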
[33] = growth inhibition of PfATP4-mutant resistant parasites – NITD609-resistant line, SYBR Green, dry powder, dose response (AID 1159571); format: functional, cell-based;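 note: parasites synchronized at ring stage by sorbitol before testing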
[34] = toxicity to human hepatoma HepG2 cells – cell-based, cherry-picked samples, cytotoxicity control, dose response (AID 1159577); format: functional
[35] = toxicity toward HepG2 liver cells – cell-based, plate reader, cherry-pick, antagonist series, cytotoxicity control, dose response (AID 743416); format: functional
[36] = toxicity to human HepG2 hepatoma cells – cell-based, plate reader, dry powder samples, cytotoxicity control, dose response (AID 1159569); format: functional;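 note: inhibitor potency with signal falling toward the positive control level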
[37] = Dd2 malaria parasite growth inhibition potency – SYBR Green, dry powder samples, dose response (AID 1159566); format: functional, cell-based;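 note: potency for growth inhibition with lower SYBR green DNA signal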
[38] = rise of 4N DNA cells, HeLa – IC50, dose response (AID 1117351); format: functional, cell-based
[39] = rise of 2N DNA cells, HeLa – IC50, dose response (AID 1117349); format: functional, cell-based
[40] = target: Cytochrome P450 2D6 (Homo sapiens, UniProt P10635);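 note: CYP2D6 member of a cytochrome P450 panel assay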

RNA-editing ligase 1, mitochondrial, sequence (P86926 whole entry): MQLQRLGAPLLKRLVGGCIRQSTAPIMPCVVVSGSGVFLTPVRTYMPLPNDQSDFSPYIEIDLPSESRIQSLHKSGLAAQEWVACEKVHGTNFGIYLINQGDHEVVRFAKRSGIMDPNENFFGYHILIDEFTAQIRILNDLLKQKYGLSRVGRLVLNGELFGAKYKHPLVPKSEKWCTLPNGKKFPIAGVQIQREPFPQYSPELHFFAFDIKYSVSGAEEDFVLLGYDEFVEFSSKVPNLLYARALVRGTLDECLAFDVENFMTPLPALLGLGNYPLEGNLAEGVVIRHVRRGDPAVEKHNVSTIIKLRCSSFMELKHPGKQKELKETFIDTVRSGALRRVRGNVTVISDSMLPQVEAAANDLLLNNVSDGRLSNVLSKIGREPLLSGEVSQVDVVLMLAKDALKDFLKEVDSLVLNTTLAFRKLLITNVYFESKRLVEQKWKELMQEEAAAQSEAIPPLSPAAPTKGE
Paired box protein Pax-8, sequence (Q06710 whole entry): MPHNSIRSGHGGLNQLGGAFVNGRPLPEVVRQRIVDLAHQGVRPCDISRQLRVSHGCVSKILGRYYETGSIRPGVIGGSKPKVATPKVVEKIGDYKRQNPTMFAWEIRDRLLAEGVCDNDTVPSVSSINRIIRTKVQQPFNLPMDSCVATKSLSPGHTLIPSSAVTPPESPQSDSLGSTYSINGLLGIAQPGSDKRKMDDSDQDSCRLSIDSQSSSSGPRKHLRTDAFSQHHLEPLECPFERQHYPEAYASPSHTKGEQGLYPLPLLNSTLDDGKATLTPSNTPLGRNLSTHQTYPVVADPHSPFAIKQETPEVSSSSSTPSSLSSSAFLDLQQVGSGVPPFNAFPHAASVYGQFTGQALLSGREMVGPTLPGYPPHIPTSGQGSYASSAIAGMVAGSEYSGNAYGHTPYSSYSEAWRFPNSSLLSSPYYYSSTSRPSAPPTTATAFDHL
Mitogen-activated protein kinase 10, sequence (P53779 whole entry): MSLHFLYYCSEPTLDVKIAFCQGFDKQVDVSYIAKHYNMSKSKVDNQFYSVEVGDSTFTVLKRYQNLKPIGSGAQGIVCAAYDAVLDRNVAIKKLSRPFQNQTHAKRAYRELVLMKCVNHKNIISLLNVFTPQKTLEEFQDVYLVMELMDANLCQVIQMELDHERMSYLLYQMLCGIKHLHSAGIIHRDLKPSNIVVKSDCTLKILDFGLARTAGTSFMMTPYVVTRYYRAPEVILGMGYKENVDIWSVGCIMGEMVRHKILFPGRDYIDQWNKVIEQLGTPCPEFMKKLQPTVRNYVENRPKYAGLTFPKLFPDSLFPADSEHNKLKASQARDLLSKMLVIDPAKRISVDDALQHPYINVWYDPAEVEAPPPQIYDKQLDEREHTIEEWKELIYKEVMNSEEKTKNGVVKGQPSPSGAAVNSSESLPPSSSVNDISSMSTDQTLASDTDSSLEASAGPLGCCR
T1 sequence (P08659 whole entry): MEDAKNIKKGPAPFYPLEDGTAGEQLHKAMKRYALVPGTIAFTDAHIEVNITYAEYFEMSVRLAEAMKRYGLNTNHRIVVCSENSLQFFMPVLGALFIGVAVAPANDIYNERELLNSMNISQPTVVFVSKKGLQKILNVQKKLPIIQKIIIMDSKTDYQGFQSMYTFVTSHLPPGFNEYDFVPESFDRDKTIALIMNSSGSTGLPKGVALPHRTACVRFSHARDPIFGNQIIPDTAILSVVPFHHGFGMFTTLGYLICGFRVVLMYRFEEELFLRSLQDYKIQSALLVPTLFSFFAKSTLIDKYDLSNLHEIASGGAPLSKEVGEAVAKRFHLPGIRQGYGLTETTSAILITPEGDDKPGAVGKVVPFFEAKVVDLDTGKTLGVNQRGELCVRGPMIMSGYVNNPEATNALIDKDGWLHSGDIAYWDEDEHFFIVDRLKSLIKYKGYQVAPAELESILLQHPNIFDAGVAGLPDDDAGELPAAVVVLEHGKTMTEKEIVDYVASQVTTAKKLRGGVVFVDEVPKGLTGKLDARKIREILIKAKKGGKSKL
Peroxisome proliferator-activated receptor gamma/Nuclear receptor coactivator 1, sequence (P37231 whole entry): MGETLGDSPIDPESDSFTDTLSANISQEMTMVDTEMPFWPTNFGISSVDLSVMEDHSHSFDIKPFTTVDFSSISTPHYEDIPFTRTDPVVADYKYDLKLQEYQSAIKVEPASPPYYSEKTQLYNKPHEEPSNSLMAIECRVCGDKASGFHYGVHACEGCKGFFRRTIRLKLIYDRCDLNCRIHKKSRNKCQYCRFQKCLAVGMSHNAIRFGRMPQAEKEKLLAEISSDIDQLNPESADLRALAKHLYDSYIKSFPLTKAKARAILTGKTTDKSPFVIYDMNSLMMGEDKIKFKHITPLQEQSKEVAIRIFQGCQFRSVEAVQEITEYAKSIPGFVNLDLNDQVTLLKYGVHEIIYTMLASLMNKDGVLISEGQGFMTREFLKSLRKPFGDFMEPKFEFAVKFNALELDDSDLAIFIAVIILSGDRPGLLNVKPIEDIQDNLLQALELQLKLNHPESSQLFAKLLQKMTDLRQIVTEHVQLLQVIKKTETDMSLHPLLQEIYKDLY
Peroxisome proliferator-activated receptor gamma/Nuclear receptor coactivator 1, sequence (Q15788 whole entry, further chain): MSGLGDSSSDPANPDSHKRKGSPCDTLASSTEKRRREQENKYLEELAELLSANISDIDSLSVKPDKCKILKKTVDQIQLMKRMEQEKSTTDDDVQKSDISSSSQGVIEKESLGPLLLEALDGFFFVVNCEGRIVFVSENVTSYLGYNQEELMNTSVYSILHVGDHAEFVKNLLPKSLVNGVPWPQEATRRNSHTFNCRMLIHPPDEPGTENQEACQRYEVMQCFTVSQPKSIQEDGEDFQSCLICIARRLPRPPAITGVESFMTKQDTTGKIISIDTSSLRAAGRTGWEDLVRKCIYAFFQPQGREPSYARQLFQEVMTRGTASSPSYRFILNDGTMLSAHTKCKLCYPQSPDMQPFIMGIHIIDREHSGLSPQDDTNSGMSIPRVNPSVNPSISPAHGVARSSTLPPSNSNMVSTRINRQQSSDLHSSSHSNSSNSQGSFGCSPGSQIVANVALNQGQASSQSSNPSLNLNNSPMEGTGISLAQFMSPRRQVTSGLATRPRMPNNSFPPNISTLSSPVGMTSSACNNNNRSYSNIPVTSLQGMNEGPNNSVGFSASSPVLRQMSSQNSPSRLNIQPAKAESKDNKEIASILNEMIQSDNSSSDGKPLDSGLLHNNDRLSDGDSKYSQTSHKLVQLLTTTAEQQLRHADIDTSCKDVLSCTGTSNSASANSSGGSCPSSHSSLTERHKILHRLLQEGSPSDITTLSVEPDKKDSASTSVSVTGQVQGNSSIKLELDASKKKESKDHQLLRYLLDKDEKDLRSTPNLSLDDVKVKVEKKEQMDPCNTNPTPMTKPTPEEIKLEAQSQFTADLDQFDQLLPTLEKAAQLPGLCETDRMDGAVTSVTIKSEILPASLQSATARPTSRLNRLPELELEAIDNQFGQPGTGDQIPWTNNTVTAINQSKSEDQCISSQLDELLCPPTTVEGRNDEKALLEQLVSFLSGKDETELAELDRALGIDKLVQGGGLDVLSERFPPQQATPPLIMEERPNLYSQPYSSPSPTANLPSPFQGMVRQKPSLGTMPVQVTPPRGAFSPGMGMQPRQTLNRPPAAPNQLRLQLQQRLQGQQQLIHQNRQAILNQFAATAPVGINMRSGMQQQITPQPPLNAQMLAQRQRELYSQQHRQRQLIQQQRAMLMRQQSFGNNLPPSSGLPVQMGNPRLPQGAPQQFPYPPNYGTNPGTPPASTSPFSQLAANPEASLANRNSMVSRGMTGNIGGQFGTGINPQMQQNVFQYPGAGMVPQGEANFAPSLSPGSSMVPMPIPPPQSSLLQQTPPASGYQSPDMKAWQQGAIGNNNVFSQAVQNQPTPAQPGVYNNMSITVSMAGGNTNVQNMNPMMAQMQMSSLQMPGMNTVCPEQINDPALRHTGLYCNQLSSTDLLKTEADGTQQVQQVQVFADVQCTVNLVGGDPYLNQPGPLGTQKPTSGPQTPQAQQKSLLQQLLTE
Kallikrein-7, sequence (P49862 whole entry): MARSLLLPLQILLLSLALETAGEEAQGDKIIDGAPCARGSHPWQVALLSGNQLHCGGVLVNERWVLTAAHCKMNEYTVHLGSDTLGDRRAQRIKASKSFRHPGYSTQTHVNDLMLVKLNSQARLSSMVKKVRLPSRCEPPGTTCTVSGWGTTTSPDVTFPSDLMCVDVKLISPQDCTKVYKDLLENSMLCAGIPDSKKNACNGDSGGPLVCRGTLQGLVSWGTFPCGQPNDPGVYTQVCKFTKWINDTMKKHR
Genome polyprotein, sequence (Q2Q167 whole entry): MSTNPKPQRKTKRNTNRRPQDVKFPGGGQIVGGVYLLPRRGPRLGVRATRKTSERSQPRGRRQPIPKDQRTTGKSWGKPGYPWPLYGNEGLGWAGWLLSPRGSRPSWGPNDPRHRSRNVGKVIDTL
Long-chain-fatty-acid--AMP ligase FadD28, sequence (P9WQ59 whole entry, the tested form may be a part): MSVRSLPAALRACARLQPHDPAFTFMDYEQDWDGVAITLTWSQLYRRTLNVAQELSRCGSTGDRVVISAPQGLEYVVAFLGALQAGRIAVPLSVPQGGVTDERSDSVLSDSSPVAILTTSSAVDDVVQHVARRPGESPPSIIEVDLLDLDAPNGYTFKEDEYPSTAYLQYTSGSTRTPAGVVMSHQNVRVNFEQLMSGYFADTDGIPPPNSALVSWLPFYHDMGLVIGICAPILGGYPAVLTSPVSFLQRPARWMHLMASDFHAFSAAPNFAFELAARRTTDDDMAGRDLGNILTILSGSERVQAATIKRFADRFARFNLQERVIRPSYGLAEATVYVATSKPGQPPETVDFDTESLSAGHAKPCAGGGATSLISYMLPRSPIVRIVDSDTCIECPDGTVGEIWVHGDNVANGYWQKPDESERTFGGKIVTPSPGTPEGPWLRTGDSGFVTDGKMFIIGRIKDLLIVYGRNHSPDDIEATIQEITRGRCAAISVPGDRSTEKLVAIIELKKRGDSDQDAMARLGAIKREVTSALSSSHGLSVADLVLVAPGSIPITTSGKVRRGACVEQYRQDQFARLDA

COc1cccc(NC(=O)CCCn2c(=O)[nH]c3ccccc3c2=O)c1
IC50 [1]: 48.1 µM (not active)

CCOc1ccc(N2C(=O)c3ccc(C(=O)OCC(=O)N(CC)C4CCS(=O)(=O)C4)cc3C2=O)cc1 (configuration not stated)
IC50 [2]: > 100 µM (active)

CN1/C(=C\C=C\C2=[N+](C)c3ccc4ccccc4c3C2(C)C)C(C)(C)c2ccccc21.[O-][Cl+3]([O-])([O-])[O-]
EC50 [3]: > 79.4 µM (not active)
EC50 [4]: 8.19 µM (active)
EC50 [5]: > 50 µM (not active)
EC50 [6]: 13.4 µM (inactive)
IC50 [7]: 761 nM (active)
EC50 [8]: 7.77 µM (active)

Sc1nnc(-c2ccc(Br)cc2)n1-c1ccccc1.[Zn+2]
IC50 [9]: 20.2 µM (inactive)

CCCCC(=O)Nc1ncc(Br)s1
IC50 [1]: 54.9 µM (not active)

Sc1nncn2c1cc1oc3ccccc3c12
IC50 [10]: > 49.8 µM (not active)

CCC(NC(=O)Cc1c(C)c2c(cc(C)c3c(C)c(C)oc32)oc1=O)C(=O)O (configuration not stated)
EC50 [11]: > 69.5 µM (inactive)

O=C(C=Cc1ccccc1)CC(c1ccccc1)N1CCOCC1 (configuration not stated)
IC50 [12]: 10.9 µM (active)
AC50 [13]: 10.7 µM (active)

C/N=c1\scc(-c2ccccc2F)n1/N=C/c1ccc(O)c(O)c1O
EC50 [14]: 2.46 µM (active)
AC50 [15]: 32 µM (inactive)
EC50 [16]: > 67.5 µM (inactive)
EC50 [17]: > 67.5 µM (inactive)
IC50 [18]: 25.8 µM (active)
EC50 [19]: 1.68 µM (active)

COc1ccccc1C#Cc1ccc([C@H]2[C@H](C#N)N(C(=O)C3CCCC3)[C@H]2CO)cc1
AC50 [20]: 4.38 µM (active)
AC50 [21]: 3.59 µM (active)
AC50 [13]: 4.17 µM (active)
AC50 [22]: > 52 µM (inactive)
AC50 [23]: 9.13 µM (active)
AC50 [24]: 32.2 µM (active)
AC50 [25]: 8.21 µM (active)
AC50 [26]: 10.6 µM (active)
AC50 [27]: 9.51 µM (active)
AC50 [28]: 19.8 µM (active)
AC50 [29]: 21.8 µM (active)
AC50 [30]: > 52 µM (inactive)

C[C@@H]1CN([C@@H](C)CO)C(=O)c2c(c3ccccc3n2C)-c2ccccc2CO[C@@H]1CN(C)S(=O)(=O)c1ccc(C(F)(F)F)cc1
AC50 [20]: 6.8 µM (active)
AC50 [21]: 54.3 µM (active)
AC50 [31]: 2.57 µM (active)
AC50 [22]: 34.5 µM (active)
AC50 [23]: 51.6 µM (active)
AC50 [32]: 2.24 µM (active)
AC50 [33]: 2.21 µM (active)
AC50 [24]: 58.4 µM (active)
AC50 [34]: > 39 µM (inactive)
AC50 [35]: 21.9 µM (active)
AC50 [36]: 20.9 µM (active)
AC50 [37]: 1.63 µM (active)
AC50 [30]: 22.3 µM (active)

COC(=O)c1nc(Cl)c(Cl)nc1N
IC50 [38]: 511 nM (active)
IC50 [39]: 334 nM (active)

COc1ccc(/N=C/C2=C(O)OCC2)cc1
IC50 [2]: > 100 µM (active)

COc1cccc(CN(C)C(=O)[C@H]2O[C@@H](n3cnc4c(=O)[nH]c(N)nc43)[C@H](O)[C@@H]2O)c1
IC50 [9]: > 96.6 µM (inactive)

O=C(C1CCC1)N1C[C@@H]2N[C@H](C1)[C@@H]2c1ccc(-c2ccccc2F)cc1
AC50 [31]: 2.24 µM (active)
AC50 [32]: 3.03 µM (active)
AC50 [33]: 3.47 µM (active)
AC50 [36]: 19.5 µM (active)
AC50 [37]: 2.5 µM (active)

CCCCc1ccc2[nH]c(NC(=O)OC)nc2c1 [PARBENDAZOLE]
IC50 [38]: 10.6 nM (active)
AC50 [40]: 1.58 µM (inconclusive)
IC50 [39]: 10.4 nM (active)
